Test [1] concerns the target T1, Melanocyte-stimulating hormone receptor (Homo sapiens, UniProt Q01726). Briefly: Inhibitory concentration of compound was determined against hMC1R through displacement of NDP-MSH radioligand using HEK293 cells. The test is classed as cell-based.
The target of test [2] is T1, Melanocyte-stimulating hormone receptor. Nature of the test: Effective concentration against hMC1R using HEK293 cells was determined by measuring the cAMP accumulation. The test is classed as functional, cell-based. (In general: Cyclic AMP is a second messenger, typically raised through Gs and lowered through Gi signalling.)
Test [3] has as its target T2, Melanocortin receptor 4 (Homo sapiens, UniProt P32245). Briefly: (§1) Effective concentration against hMC4R using HEK293 cells was determined by measuring cAMP accumulation at 50 uM. Type of test: functional, cell-based.
Test [4] deals with T2, Melanocortin receptor 4. Nature of the test: Inhibitory concentration of compound was determined against hMC4R through displacement of NDP-MSH radioligand using HEK293 cells. Type of test: cell-based.
Test [5] deals with T2, Melanocortin receptor 4. Briefly: (§2) Effective concentration against hMC4R using HEK293 cells was determined by measuring cAMP accumulation. Type of test: functional, cell-based.
The target in test [6] is T2, Melanocortin receptor 4. The test is described as §1. The test is classed as functional, cell-based. This is another data set of the same source.
Test [7] has as its target T2, Melanocortin receptor 4. The test is described as §2. The test is classed as functional, cell-based. This is another data set of the same source.

Experimental findings from ChEMBL document CHEMBL1136586, “Structure-activity relationship of linear peptide Bu-His6-DPhe7-Arg8-Trp9-Gly10-NH2 at the human melanocortin-1 and -4 receptors: DPhe7 and Trp9 substitution” (Bioorg Med Chem Lett, 2003) are described below.

Square brackets hold non-standard residues; d marks the D form. Peptide text beside a SMILES is read from it. * marks the point of attachment. Phe(3-CF3) = N[C@@H](Cc1cccc(C(F)(F)F)c1)C(=O)O; Phe(4-Br) = N[C@@H](Cc1ccc(Br)cc1)C(=O)O; Phe(4-Cl) = N[C@@H](Cc1ccc(Cl)cc1)C(=O)O; Phe(4-Me) = Cc1ccc(C[C@H](N)C(=O)O)cc1; Butyryl = CCCC(=O)*

T1 sequence (Q01726 whole entry): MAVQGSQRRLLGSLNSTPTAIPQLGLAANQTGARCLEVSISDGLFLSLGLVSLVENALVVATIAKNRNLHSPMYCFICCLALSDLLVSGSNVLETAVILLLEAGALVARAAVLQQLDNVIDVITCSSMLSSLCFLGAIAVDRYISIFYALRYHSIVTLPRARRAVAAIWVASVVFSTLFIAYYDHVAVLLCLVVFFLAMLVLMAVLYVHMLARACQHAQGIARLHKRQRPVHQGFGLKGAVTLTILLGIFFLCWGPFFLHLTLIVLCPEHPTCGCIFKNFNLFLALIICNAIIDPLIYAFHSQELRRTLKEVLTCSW
T2 sequence (P32245 whole entry): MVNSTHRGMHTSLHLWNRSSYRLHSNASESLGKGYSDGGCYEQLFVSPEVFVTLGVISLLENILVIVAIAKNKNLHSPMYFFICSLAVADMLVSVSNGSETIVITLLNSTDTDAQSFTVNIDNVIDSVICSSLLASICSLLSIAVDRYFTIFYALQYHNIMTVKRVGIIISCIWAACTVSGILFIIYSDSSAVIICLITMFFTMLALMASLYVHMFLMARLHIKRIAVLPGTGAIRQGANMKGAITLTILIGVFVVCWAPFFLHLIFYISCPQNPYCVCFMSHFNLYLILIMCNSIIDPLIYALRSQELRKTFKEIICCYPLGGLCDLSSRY

For `CCCC(=O)N[C@@H](Cc1c[nH]cn1)C(=O)N[C@H](Cc1ccc2ccccc2c1)C(=O)N[C@@H](CCCN=C(N)N)C(=O)N[C@@H](Cc1c[nH]c2ccccc12)C(=O)NCC(N)=O`, the IC50 (usually the concentration at which inhibition is half-maximal) was found to be 5000 nM in test [1] and 30 nM at Melanocortin receptor 4 [4]. Moreover, in test [2], a half-maximal effect (EC50) was put at 48 nM. Besides, the inhibition (usually the share of the control response that was lost under treatment) against Melanocortin receptor 4 [3] was 0%.
Taken in the same sequence, the figures for `CCCC(=O)N[C@@H](Cc1c[nH]cn1)C(=O)N[C@H](Cc1ccc(Cl)c(Cl)c1)C(=O)N[C@@H](CCCN=C(N)N)C(=O)N[C@@H](Cc1c[nH]c2ccccc12)C(=O)NCC(N)=O` were 250 nM, 4 nM, 10 nM and 0%.
Turning to `CCCC(=O)N[C@@H](Cc1c[nH]cn1)C(=O)N[C@H](Cc1cccc2ccccc12)C(=O)N[C@@H](CCCN=C(N)N)C(=O)N[C@@H](Cc1c[nH]c2ccccc12)C(=O)NCC(N)=O`, the IC50 in test [1] is 4000 nM; at Melanocortin receptor 4 [4], 350 nM. The EC50 – broadly, the concentration giving half of the maximal effect – came to 30 nM in test [2] and 65 nM on Melanocortin receptor 4 [5].
In the case of `CCCC(=O)N[C@@H](Cc1cnc[nH]1)C(=O)N[C@H](Cc1ccccc1)C(=O)N[C@@H](CCCNC(=N)N)C(=O)N[C@@H](Cc1csc2ccccc12)C(=O)NCC(N)=O`, the IC50 is 2880 nM in test [1] and 1000 nM on Melanocortin receptor 4 [4]. Moreover, the EC50 in test [2] is 274 nM; on Melanocortin receptor 4 [5], 100 nM.
For `CCCC(=O)N[C@@H](Cc1cnc[nH]1)C(=O)N[C@@H](Cc1ccccc1)C(=O)N[C@@H](CCCNC(=N)N)C(=O)N[C@@H](Cc1c[nH]c2ccccc12)C(=O)NCC(N)=O`, the IC50 worked out at 575 nM in test [1] and 150 nM on Melanocortin receptor 4 [4]. Moreover, the EC50 in test [2] is 10 nM; on Melanocortin receptor 4 [5], 20 nM.
Consider `CCCC(=O)N[C@@H](Cc1c[nH]cn1)C(=O)N[C@@H](Cc1ccc(OC)cc1)C(=O)N[C@@H](CCCN=C(N)N)C(=O)N[C@@H](Cc1c[nH]c2ccccc12)C(=O)NCC(N)=O` (Butyryl-HY(Me)RWG-NH2), for which the IC50 amounted to 70 nM in test [1] and 120 nM at Melanocortin receptor 4 [4]. Moreover, the EC50 turned out to be 0.4 nM in test [2] and 60 nM on Melanocortin receptor 4 [5].
Turning to `CCCC(=O)N[C@@H](Cc1cnc[nH]1)C(=O)N[C@@H](Cc1ccc(O)cc1)C(=O)N[C@@H](CCCNC(=N)N)C(=O)N[C@@H](Cc1c[nH]c2ccccc12)C(=O)NCC(N)=O` (Butyryl-HYRWG-NH2), the EC50 was 180 nM in test [2] and 1150 nM on Melanocortin receptor 4 [5].
Take `CCCC(=O)N[C@@H](Cc1cnc[nH]1)C(=O)N[C@@H](Cc1cccc(C(F)(F)F)c1)C(=O)N[C@@H](CCCNC(=N)N)C(=O)N[C@@H](Cc1c[nH]c2ccccc12)C(=O)NCC(N)=O` (Butyryl-H[Phe(3-CF3)]RWG-NH2): the results for the IC50 (in test [1]; on Melanocortin receptor 4 [4]) were 9600 nM and 300 nM, respectively. For the same compound, the EC50 in test [2] turned out to be 611 nM; at Melanocortin receptor 4 [5] it was 45 nM.
Take `CCCC(=O)N[C@@H](Cc1c[nH]cn1)C(=O)N[C@@H](Cc1ccc(Br)cc1)C(=O)N[C@@H](CCCN=C(N)N)C(=O)N[C@@H](Cc1c[nH]c2ccccc12)C(=O)NCC(N)=O` (Butyryl-H[Phe(4-Br)]RWG-NH2): the values for the 50% inhibitory concentration (IC50) (in test [1]; on Melanocortin receptor 4 [4]) were 300 nM and 22 nM, respectively. In addition, the EC50 in test [2] turned out to be 54 nM; on Melanocortin receptor 4 [5], 13 nM.
With `CCCC(=O)N[C@@H](Cc1cnc[nH]1)C(=O)N[C@@H](Cc1ccc(Cl)cc1)C(=O)N[C@@H](CCCNC(=N)N)C(=O)N[C@@H](Cc1c[nH]c2ccccc12)C(=O)NCC(N)=O` (Butyryl-H[Phe(4-Cl)]RWG-NH2), the results for the IC50 (in test [1]; at Melanocortin receptor 4 [4]) were 300 nM and 80 nM, respectively. Besides, the EC50 (in test [2]; on Melanocortin receptor 4 [5]) was 20 nM throughout.
Take `CCCC(=O)N[C@@H](Cc1cnc[nH]1)C(=O)N[C@@H](Cc1ccc(C)cc1)C(=O)N[C@@H](CCCNC(=N)N)C(=O)N[C@@H](Cc1c[nH]c2ccccc12)C(=O)NCC(N)=O` (Butyryl-H[Phe(4-Me)]RWG-NH2): the results for the 50% effective concentration (EC50) (in test [2]; at Melanocortin receptor 4 [5]) were 55 nM and 77 nM, respectively.
`CCCC(=O)N[C@@H](Cc1c[nH]cn1)C(=O)NC(Cc1ccccc1)C(=O)N[C@@H](CCCN=C(N)N)C(=O)NC(Cc1c[nH]c2ccccc12)C(=O)NCC(N)=O` (single isomer, unassigned): the EC50 (in test [2]; on Melanocortin receptor 4 [6]) was 110 nM throughout.
At Melanocortin receptor 4 [7], `CCCC(=O)N[C@@H](Cc1c[nH]cn1)C(=O)NC(Cc1ccccc1)C(=O)N[C@@H](CCCN=C(N)N)C(=O)N[C@@H](Cc1ccc(Cl)c(Cl)c1)C(=O)NCC(N)=O` (single isomer, unassigned) returned an ED50 of 194 nM. In addition, the response in test [2] was half-maximal at 1 nM (EC50).
With `CCCC(=O)N[C@@H](Cc1c[nH]cn1)C(=O)NC(Cc1ccc(OCC)cc1)C(=O)N[C@@H](CCCN=C(N)N)C(=O)N[C@@H](Cc1c[nH]c2ccccc12)C(=O)NCC(N)=O` (single isomer, unassigned), the IC50 in test [1] was 16 nM; on Melanocortin receptor 4 [4], 100 nM. The EC50 in test [2] came out at 0.1 nM; on Melanocortin receptor 4 [5], 16 nM.
In the case of `CCCC(=O)N[C@@H](Cc1c[nH]cn1)C(=O)NC(Cc1cccs1)C(=O)N[C@@H](CCCN=C(N)N)C(=O)N[C@@H](Cc1c[nH]c2ccccc12)C(=O)NCC(N)=O` (single isomer, unassigned), the EC50 was found to be 4 nM in test [2] and 8 nM on Melanocortin receptor 4 [6].
In the case of `CCCC(=O)N[C@@H](Cc1c[nH]cn1)C(=O)NC(Cc1ccccc1)C(=O)N[C@@H](CCCN=C(N)N)C(=O)N[C@@H](Cc1ccc2ccccc2c1)C(=O)NCC(N)=O` (single isomer, unassigned), the IC50 turned out to be 600 nM in test [1] and 50 nM at Melanocortin receptor 4 [4]. Besides, the EC50 in test [2] is 14 nM; on Melanocortin receptor 4 [5], 25 nM.
Consider `CCCC(=O)N[C@@H](Cc1c[nH]cn1)C(=O)NC(Cc1ccccc1)C(=O)N[C@@H](CCCN=C(N)N)C(=O)N[C@@H](Cc1cccc2ccccc12)C(=O)NCC(N)=O` (single isomer, unassigned), for which the IC50 in test [1] stood at 1200 nM; at Melanocortin receptor 4 [4] it was 600 nM. Further, the results for the EC50 (in test [2]; at Melanocortin receptor 4 [5]) were 150 nM and 140 nM, respectively.
